The values that follow come from patent publication US5739302A, “Manufacture and use of novel glycosides of catechol estrogens” (priority 1991, dated 1998).

Each structure is given as a SMILES string. Converted amounts (≈) assume the structure as drawn. Like-named read-outs stand apart in the source and are kept apart here.

One series is described as follows: Solubility in water. The class given is physicochemical. As to the method:
For example, the volume of water required to dissolve 1 mg of various glycosides is as following; 2 to 3 ml for 17-glucoside, 2 ml for 17-maltoside, 0.7 ml for 2-glucoside, and 3 ml for 3-glucoside, while 1 mg of 2-hydroxyestradiol cannot be dissolved in 3 ml of water. Accordingly, the glycosides obtained in the present invention provide a way to prepare an injection containing the same.

In another series the test system is rat liver homogenate. Briefly: Inhibitory effect on the lipid peroxidation of rat liver homogenate (thiobarbituric acid method). The class given is biochemical. The conditions noted are these: 10 μM; 4 hours at 37° C. Here is the method:
(Inhibitory effect of 2-hydroxyestradiol 2-glucoside on the lipid peroxidation of rat liver homogenate)
A rat liver homogenate was prepared in 4 volume of 0.15M KCl .2-OHE2 2-Glu was dissolved in distilled water and 2-OHE2, in 1% DMSO, to give a final concentration of 1 mM. The reaction mixture contained the followings in a final volume of 2 ml; 1.98 ml of rat liver homogenate (10 mg protein/ml) and 10 μM either 2-PHE2 2-Glu or 2-OHE2. As blank tests, the same volume of distilled water or 1% DMSO was added in place of 2-OHE2 2-Glu or 2-OHE2. After incubation for 4 hours at 37° C., lipid peroxide level was determined by the thiobarbituric acid method.

A short description of series [1]: Acute toxicity (intraperitoneal injection). It is filed as in vivo, mouse. The following applies: mouse, in vivo, ip; male ddY mice, intraperitoneal; 2 weeks. Here is the method: (§1) Male mice of ddY strain were received 2-OHE2 17-Glu or 2-OHE2 2-Glu by an intraperitoneal injection at doses of 250 mg, 500 mg, 750 mg, or 1000 mg/kg body weight.
Another series concerns Male mice of ddY strain. Briefly: Acute toxicity (intraperitoneal injection). The following applies: 250, 500, 750 or 1000 mg/kg i.p.; observation period of 2 weeks. It is filed as in vivo, mouse. Here is the method: as §1
A further series relates to rat brain homogenate. Briefly: Inhibitory effect on the lipid peroxidation of rat brain homogenate (thiobarbituric acid method). It is filed as biochemical. The following applies: for amount of lipid peroxides in terms of malondialdehyde: 37° C. As to the method:
(Inhibitory effect of 2-hydroxyestradiol 2-glucoside on the lipid peroxidation of rat brain homogenate)
2-Hydroxyestradiol 2-(β-D-glucopyranoside) (2-OHE2 2-Glu) obtained according to the method of this invention (Example 16) was dissolved in water to give a concentration of 1 mM or 0.5 mM. The reaction mixture contains the followings in a final volume of 2 ml; 1.98 ml of rat brain homogenate (10 mg protein/ml) and 2-OHE2 2-Glu at a concentration of 5 μM or 10 μM. After incubation at 37° C., lipid peroxide level was determined by the thiobarbituric acid method.
Values in Table 2 indicate the amount of lipid peroxides (nmol/mg protein
in terms of malondialdehyde.

The test system of series [2] is low-density lipoprotein (LDL). Briefly: Inhibitory effect on the lipid peroxidation of low-density lipoprotein (CuSO4-induced; methylene blue method). The class given is biochemical, rabbit (hypercholesterolemic). The conditions noted are these: for amount of lipid peroxides: LDL + CuSO4, 5 nmol compound in 1 ml. Here is the method: (Inhibitory effect of 2-hydroxyestradiol 17-glucoside on the lipid peroxidation of low-density lipoprotein)
Low-density lipoprotein (LDL) was prepared from hypercholesterolemic rabbit serum. 2-Hydroxyestradiol 17-(β-D-glucopyranoside) (2-OHE2 17-Glu) obtained according to the method of this invention (Example 4 ) was dissolved in distilled water and 2-hydroxyestradiol (2-OHE2) as a reference compound, in dimethylsulfoxide (DMSO), to give a final concentration of 500 μM. The reaction mixture contained the followings in a final volume of 1 ml: 500 μg of LDL; 5 nmol of CuSO4; and 5 nmol of either 2-OHE2 17-Glu or 2-OHE2. As blank tests, distilled water or DMSO was added in place of 2-OHE2 17-Glu or 2-OHE2. After incubation for a definite time at […], the amount of lipid hydroperoxides generated was determined by the methylene blue method.
Values in TABLE 1 indicate the amount of lipid peroxides (nmol/mg

Another series relates to red blood cells. Kind of series: Incorporation of glycosides of 2-hydroxyestradiol into red blood cells. The class given is in vitro ADME. Here is the method:
(§2) (Incorporation of glycosides of 2-hydroxyestradiol into red blood cells)
(§3) The reaction mixture contained 0.2 nmol of 2-OHE2, 2-OHE2 17-Glu, or 2-hydroxyestradiol 17-(β-maltoside) (2-OHE2 17-Mal, obtained in Example 5) in 0.1 ml of 0.2% DMSO-0.1% ascorbic acid in phosphate buffered saline (PBS) and 0.9 ml of suspension of red blood cells in PBS. After incubation at 37° C. for several intervals, the mixture was centrifuged and supernatant fraction was obtained, and then the amount of each glycoside of 2-hydroxyestradiol remained in the supernatant was determined by HPLC.
(§4) Values in Table 3 indicate residual amount (%) in the incubation medium.

Experiment in series [3]: as above
The conditions noted are these: red blood cell suspension, 0.2 nmol compound, 37° C., read-out: residual amount in the incubation medium. It is filed as in vitro ADME. Here is the method:
as §2, §3, §4

For `C[C@]12CC[C@@H]3c4cc(O)c(O[C@@H]5O[C@H](CO)[C@@H](O)[C@H](O)[C@H]5O)cc4CC[C@H]3[C@@H]1CC[C@@H]2O` [2-Hydroxyestradiol 3-(β-D-glucopyranoside)], the figures for the solubility in the series “Solubility in water” and in the series “Solubility in water” (water) were 3 mL and 333 µg/mL (≈ 740 µM), respectively.
Turning to `C[C@]12CC[C@@H]3c4cc(O[C@@H]5O[C@H](CO)[C@@H](O)[C@H](O)[C@H]5O)c(O)cc4CC[C@H]3[C@@H]1CC[C@@H]2O` [2-OHE2 2-Glu, 2-Hydroxyestradiol 2-(β-D-glucopyranoside)], the “inhibition of the lipid peroxidation” value with rat liver homogenate was determined as 77%. In series [1], this molecule gave an LD50 at 336 h above 100 mg/kg. For the same molecule, the “abnormal symptoms (in words)” value in the series on Male mice of ddY strain is on record as “no abnormal symptom was found”. Moreover, in the series with Male mice of ddY strain, the “survival (in words)” value is “All mice survived”. The “inhibition of the lipid peroxidation (in words)” value in the series on rat brain homogenate (5 μM and 10 μM) was “strongly inhibited the lipid peroxidation in a concentration dependent manner”. Moreover, the “amount of lipid peroxides in terms of malondialdehyde” value in the series with rat brain homogenate (5 μM, incubation 0 hr) was 0.271 nmol/mg protein; in the series with rat brain homogenate (5 μM, incubation 1 hr), 1.124 nmol/mg protein; in the series with rat brain homogenate (5 μM, incubation 2 hr), 1.867 nmol/mg protein; in the series with rat brain homogenate (5 μM, incubation 4 hr), 3.167 nmol/mg protein; with rat brain homogenate (10 μM, incubation 0 hr), 0.271 nmol/mg protein; in the series on rat brain homogenate (10 μM, incubation 1 hr), 0.905 nmol/mg protein. In addition, the “amount of lipid peroxides in terms of malondialdehyde” value in the series on rat brain homogenate (10 μM, incubation 2 hr) turned out to be 1.326 nmol/mg protein; in the series on rat brain homogenate (10 μM, incubation 4 hr), 1.534 nmol/mg protein. The solubility is 0.5 to 1 mL in “Solubility in water” and 1430 µg/mL (≈ 3170 µM) in the series “Solubility in water” (water).
With `C[C@]12CC[C@@H]3c4cc(O)c(O)cc4CC[C@H]3[C@@H]1CC[C@@H]2O[C@@H]1O[C@H](CO)[C@@H](O)[C@H](O)[C@H]1O` [2-OHE2 17-Glu, 2-Hydroxyestradiol 17-(β-D-glucopyranoside)], the “amount of lipid peroxides” value worked out at 8.93 nmol/mg protein in series [2] (incubation 1 hr), 19.48 nmol/mg protein in series [2] (incubation 2 hr), 24.76 nmol/mg protein in series [2] (incubation 3 hr) and 32.17 nmol/mg protein in series [2] (incubation 4 hr). The “inhibitory potency on LDL peroxidation (in words)” value in series [2] (compared with 2-OHE2) is “the same to that of 2-OHE2”. Besides, the “inhibition of the peroxidation of LDL (in words)” value in series [2] (in words) is “clearly inhibited the peroxidation of LDL”. The median lethal dose (LD50) at 336 h in series [1] is above 100 mg/kg. Further, the “abnormal symptoms (in words)” value with Male mice of ddY strain was “no abnormal symptom was found”. In addition, the “survival (in words)” value with Male mice of ddY strain is “All mice survived”. Further, the “incorporation into red blood cells (in words)” value with red blood cells is “markedly retarded as compared with that of 2-OHE2”. The solubility was 2 to 3 mL in the series “Solubility in water” and 333 to 500 µg/mL (≈ 740 to 1110 µM) in “Solubility in water” (water).
In the case of `C[C@]12CC[C@@H]3c4cc(O)c(O)cc4CC[C@H]3[C@@H]1CC[C@@H]2O[C@@H]1O[C@H](CO)[C@@H](O[C@H]2O[C@H](CO)[C@@H](O)[C@H](O)[C@H]2O)[C@H](O)[C@H]1O` [2-OHE2 17-Mal, 2-hydroxyestradiol 17-(β-maltoside)], in the series with red blood cells, the “incorporation into red blood cells (in words)” value was “markedly retarded as compared with that of 2-OHE2”. The solubility in the series “Solubility in water” was 2 mL; in the series “Solubility in water” (water) it was 500 µg/mL (≈ 816 µM).
As for `C[C@]12CC[C@@H]3c4cc(O)c(O)cc4CC[C@H]3[C@@H]1CC[C@@H]2O` [Example 2-OHE2, 2-hydroxyestradiol, reference compound], the “amount of lipid peroxides” value in series [2] (incubation 1 hr) was 17.45 nmol/mg protein; in series [2] (incubation 2 hr), 24.55 nmol/mg protein; in series [2] (incubation 3 hr), 27.29 nmol/mg protein; in series [2] (incubation 4 hr), 30.74 nmol/mg protein. Further, the “inhibition of the lipid peroxidation” value in the series on rat liver homogenate is reported as 73%. In series [3] (0.5 min), the remaining at 0.5 min stood at 4.4%. Further, in series [3] (1.0 min), the remaining at 1 min turned out to be 4.4%. Besides, the remaining at 2 min in series [3] (2.0 min) was 3.7%. Besides, the solubility in “Solubility in water” (per 1 mg, water, read-out: volume of water required to dissolve 1 mg) was below 333 µg/mL.
